{
  "source": "patent US7879907B2",
  "about": "“3-phenylpropanoic compound activators of receptors of PPAR type and pharmaceutical/cosmetic compositions comprised thereof” (Galderma Research & Development, priority 2007, dated 2011)",
  "molecular_target": "T1, PPARγ (Gal-hPPAR) (Homo sapiens, UniProt P37231)",
  "T1 construct": "The reporter is printed as ERE-βGlob-Luc-SV-Neo",
  "T1 sequence (P37231 238-505 limits assumed)": "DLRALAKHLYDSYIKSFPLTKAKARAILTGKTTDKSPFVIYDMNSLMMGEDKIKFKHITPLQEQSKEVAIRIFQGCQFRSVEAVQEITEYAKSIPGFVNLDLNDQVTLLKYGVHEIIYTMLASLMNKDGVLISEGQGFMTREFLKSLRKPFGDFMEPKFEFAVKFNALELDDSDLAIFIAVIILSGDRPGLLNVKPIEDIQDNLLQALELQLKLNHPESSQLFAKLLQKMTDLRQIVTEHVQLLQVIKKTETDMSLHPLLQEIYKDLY",
  "assay": "Cross-curve PPAR transactivation test (luciferase reporter, HeLN cells), PPARγ",
  "assay_type": "cell-based",
  "conditions": "HeLN stable transfectants; Schild regression against reference agonist; apparent Kd; read-out: PPAR gamma Kd app",
  "protocol": "The activation of PPAR receptors with an agonist (activator) in HeLN cells leads to the expression of a reporter gene, luciferase, which, in the presence of a substrate, generates light. The modulation of the PPAR receptors is measured by quantifying the luminescence produced after incubating the cells in the presence of a reference agonist. The ligands displace the agonist from its site. The measurement of the activity is performed by quantifying the light produced. This measurement makes it possible to determine the modulatory activity of the compounds according to the invention by determining the constant that is the affinity of the molecule for the PPAR receptor. Since this value can fluctuate depending on the basal activity and the expression of the receptor, it is referred to as Kd apparent (KdApp in nM).\nTo determine this constant, “cross curves” of the test product against a reference agonist are produced in a 96-well plate: 10 concentrations of the test product plus a concentration 0 are arranged in a line, and 7 concentrations of the agonist plus a concentration 0 are arranged in a column. This is 88 measurement points for 1 product and 1 receptor. […]\nThe various dilutions of the test products and of the reference ligand are added at a rate of 5 μl per well. […] After 5 minutes, the plates are read by the luminescence detector.",
  "data": [
    {"smiles": "CCCCOc1cc(CCC(=O)O)ccc1CCCc1ccc(OS(=O)(=O)CCCC)c(OC)c1", "note": "[Example 5, 3-(4-{3-[4-(butane-1-sulfonyloxy)-3-methoxyphenyl]propyl}-3-butoxyphenyl)propanoic acid]", "values": [
      {"measurement": "Kd", "result": 8, "unit": "nM"}
    ]}
  ]
}
